The values that follow come from PubChem BioAssay AID292 (DTP/NCI, 2004).

The assay has as its system B6C3F1 mice, ip Sarcoma M5076, median survival T/C. The experiment in a line: NCI In Vivo Anticancer Drug Screen. Data for tumor model Sarcoma M5076 (intraperitoneal) in B6C3F1 mice. The settings on record: endpoint: median survival time, schedule: Q04DX004 (ip), higher = longer survival. A digest of the protocol: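 The readout is a ratio of survival in drug-treated animals to survival in animals given vehicle alone, taken in mice bearing a transplanted tumour line.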

The mark [1] stands for this setting: dose: 12.5 mg/kg/injection, vehicle: saline with Tween-80.
Setting [2] is: dose: 25.0 mg/kg/injection, vehicle: saline with Tween-80.
Setting [3] is: dose: 37.5 mg/kg/injection, vehicle: Klucel (hydroxypropylcellulose) (HPC).
The mark [4] stands for this setting: dose: 75.0 mg/kg/injection, vehicle: Klucel (hydroxypropylcellulose) (HPC).
[5] abbreviates: dose: 150.0 mg/kg/injection, vehicle: Klucel (hydroxypropylcellulose) (HPC).
The mark [6] stands for this setting: dose: 300.0 mg/kg/injection, vehicle: Klucel (hydroxypropylcellulose) (HPC).
Setting [7] is: dose: 50.0 mg/kg/injection, vehicle: Klucel (hydroxypropylcellulose) (HPC).
Setting [8] is: dose: 100.0 mg/kg/injection, vehicle: Klucel (hydroxypropylcellulose) (HPC).
[9] abbreviates: dose: 400.0 mg/kg/injection, vehicle: Klucel (hydroxypropylcellulose) (HPC).
The mark [10] stands for this setting: dose: 50.0 mg/kg/injection, vehicle: saline with Tween-80.
[11] abbreviates: dose: 100.0 mg/kg/injection, vehicle: saline with Tween-80.
Where [12] appears, read: dose: 200.0 mg/kg/injection, vehicle: saline with Tween-80.
[13] abbreviates: dose: 400.0 mg/kg/injection, vehicle: saline with Tween-80.
Where [14] appears, read: dose: 600.0 mg/kg/injection, vehicle: Klucel (hydroxypropylcellulose) (HPC).
Setting [15] is: dose: 200.0 mg/kg/injection, vehicle: Klucel (hydroxypropylcellulose) (HPC).
Where [16] appears, read: dose: 800.0 mg/kg/injection, vehicle: Klucel (hydroxypropylcellulose) (HPC).

“And” between values parts separate entries of the source, which are not always exact repeats. Equal values may be shown once. Toxic doses and inconclusive results are not listed.

For the molecule `CCC(NC(N)=O)C(CC)NC(N)=O` (configuration not stated), the T/C was 92 % of control under setting [1] and 92 % of control under setting [2].

Regarding `COC(=O)Nc1cccc(-c2nc3ccc(NC(=O)OC)cc3c(=O)n2-c2ccccc2)c1`, the T/C (dose: 133.0 mg/kg/injection, vehicle: Klucel (hydroxypropylcellulose) (HPC)) was 167 % of control.

Turning to `[CH3][Sn]([CH3])([Cl])[c]1cc[c]([Sn]([CH3])([CH3])[Cl])cc1`, the T/C reads like this: (dose: 0.25 mg/kg/injection, vehicle: saline) 108 % of control; (dose: 0.5 mg/kg/injection, vehicle: saline) 105 % of control; (dose: 1.0 mg/kg/injection, vehicle: saline) 87 % of control; (dose: 2.0 mg/kg/injection, vehicle: saline) 91 % of control.

In the case of `O=C(Nc1cccc2ccccc12)C1C(=O)C(=O)N(c2cccc3ccccc23)C1=O` (configuration not stated), the T/C is 105 % of control under setting [3], 104 % of control under setting [4], 88 % of control under setting [5] and 91 % of control under setting [6].

In the case of `CCOC(=O)Nc1cc(NC(C)/C(=N/O)c2ccccc2)c([N+](=O)[O-])c(N)n1` (configuration not stated), the T/C is, setting by setting: under setting [7], 99 % of control and 100 % of control; under setting [8], 109 % of control and 123 % of control; (dose: 172.8 mg/kg/injection, vehicle: Klucel (hydroxypropylcellulose) (HPC)) 107 % of control; (dose: 288.0 mg/kg/injection, vehicle: Klucel (hydroxypropylcellulose) (HPC)) 119 % of control; under setting [9], 156 % of control; (dose: 13333.3 mg/kg/injection, vehicle: Klucel (hydroxypropylcellulose) (HPC)) 119 % of control.

Take `O=C(Nc1cc(Cl)ccc1C(=O)O)c1cccc(C[n+]2ccccc2)c1`: the T/C reads like this: under setting [10], 100 % of control; under setting [11], 104 % of control; under setting [12], 95 % of control; under setting [13], 88 % of control.

On to `O=C1CN2Cc3c(sc4c3CCCC4)N=C2N1`, for which the T/C by setting is: under setting [3], 103 % of control; under setting [4], 104 % of control; under setting [5], 100 % of control; under setting [6], 103 % of control; under setting [14], 100 % of control.

For the molecule `COc1ccc(-n2c(SCC(=O)NC(=O)Nc3ccccc3)nc3c(Br)cc(Br)cc3c2=O)cc1`, the T/C runs as follows: under setting [3], 91 % of control; under setting [4], 93 % of control; under setting [5], 89 % of control; under setting [14], 90 % of control.

In the case of `Cc1c(N)nc([C@H](CC(N)=O)NC[C@H](N)C(N)=O)nc1C(=O)N[C@H](C(=O)N[C@H](C)[C@@H](O)[C@H](C)C(=O)N[C@H](C(=O)NCCc1nc(-c2nc(C(=O)NCCC[S+](C)C)cs2)cs1)[C@@H](C)O)C(OC1OC(CO)C(O)C(O)C1OC1OC(CO)C(O)C(OC(N)=O)C1O)c1cnc[nH]1` (some centres not stated), the T/C was 94 % of control (dose: 5.0 mg/kg/injection, vehicle: saline); 94 % of control (dose: 10.0 mg/kg/injection, vehicle: saline); 109 % of control (dose: 20.0 mg/kg/injection, vehicle: saline); 106 % of control (dose: 40.0 mg/kg/injection, vehicle: saline).

For the molecule `O=C(Nc1ccccc1)c1c(O)[nH]c(=O)[nH]c1=O`, the T/C reads like this: under setting [2], 102 % of control and 108 % of control; under setting [10], 98 % of control and 106 % of control and 110 % of control; under setting [11], 96 % of control and 111 % of control and 112 % of control; under setting [12], 109 % of control and 111 % of control and 119 % of control; under setting [13], 114 % of control.

For the molecule `C=C(c1ccc(OC)c(OC)c1)c1nccc2cc(OC)c(OC)cc12`, the T/C is 102 % of control under setting [8], 119 % of control under setting [15], 98 % of control under setting [9] and 102 % of control under setting [16].

For `CN(C)c1cc2c(nn1)Nc1ccccc1S2`, the T/C by setting is: under setting [10], 88 % of control; under setting [11], 88 % of control; under setting [12], 97 % of control; (dose: 800.0 mg/kg/injection, vehicle: saline with Tween-80) 90 % of control.

For the molecule `OC1(c2ccccc2)c2ccccc2NC2=NCCN21` (configuration not stated), the T/C was 95 % of control under setting [2] and 96 % of control under setting [10].

Turning to `CCCCCCCCCCCC1NC(=S)NC(=O)C1C#N` (configuration not stated), the T/C under setting [7] was 91 % of control.

On to `CN1CCC2CC1c1ccn(C)c1C2=O` (configuration not stated), for which the T/C (dose: 3.75 mg/kg/injection, vehicle: saline) is 106 % of control; the T/C (dose: 7.5 mg/kg/injection, vehicle: saline) is 102 % of control; the T/C (dose: 15.0 mg/kg/injection, vehicle: saline) is 107 % of control.

On to `O=C(O)c1nn(-c2ccccc2-c2n[nH]c(=O)[nH]c2=O)c(=O)[nH]c1=O`, for which the T/C under setting [10] was 101 % of control, the T/C under setting [11] was 100 % of control and the T/C under setting [12] was 92 % of control.

Turning to `O=S1(=O)C(c2ccccc2)=C(O)c2cc3ccccc3nc21`, the T/C by setting is: (dose: 31.25 mg/kg/injection, vehicle: saline with Tween-80) 97 % of control; (dose: 62.5 mg/kg/injection, vehicle: saline with Tween-80) 108 % of control; (dose: 125.0 mg/kg/injection, vehicle: saline with Tween-80) 93 % of control; (dose: 250.0 mg/kg/injection, vehicle: saline with Tween-80) 102 % of control.

As for `CSc1c(N(C)C)c(=O)c1=S`, the T/C reads like this: under setting [1], 102 % of control; under setting [2], 103 % of control; under setting [10], 98 % of control; under setting [11], 93 % of control.

As for `O=C1C(=O)c2cccnc2-c2ncccc21`, the T/C is 101 % of control (dose: 0.38 mg/kg/injection, vehicle: Klucel (hydroxypropylcellulose) (HPC)); 109 % of control (dose: 0.75 mg/kg/injection, vehicle: Klucel (hydroxypropylcellulose) (HPC)); 104 % of control (dose: 1.5 mg/kg/injection, vehicle: Klucel (hydroxypropylcellulose) (HPC)); 105 % of control (dose: 3.0 mg/kg/injection, vehicle: Klucel (hydroxypropylcellulose) (HPC)); 110 % of control (dose: 6.0 mg/kg/injection, vehicle: Klucel (hydroxypropylcellulose) (HPC)).

Consider `N#CC1C(=O)NC(=O)C(C#N)C1c1ccncc1` (configuration not stated), for which the T/C is 100 % of control under setting [7]; 110 % of control under setting [8]; 91 % of control under setting [15]; 104 % of control under setting [9]; 96 % of control under setting [16].

Consider `CN(C)CCOc1cccc2c1C(=O)c1ccccc1C2=O`, for which the T/C is, setting by setting: (dose: 50.0 mg/kg/injection, vehicle: water) 90 % of control; (dose: 100.0 mg/kg/injection, vehicle: water) 97 % of control.

With `OC1OC2COC(c3ccccc3)OC2C(O)C1O` (configuration not stated), the T/C (dose: 18.75 mg/kg/injection, vehicle: water) is 109 % of control; the T/C (dose: 37.5 mg/kg/injection, vehicle: water) is 89 % of control; the T/C (dose: 75.0 mg/kg/injection, vehicle: water) is 96 % of control; the T/C (dose: 150.0 mg/kg/injection, vehicle: water) is 101 % of control; the T/C (dose: 300.0 mg/kg/injection, vehicle: water) was 98 % of control; the T/C (dose: 600.0 mg/kg/injection, vehicle: water) was 94 % of control.
